A short description of series [1]: Selectivity index, ratio of CC50 for mock infected human MT4 cells to IC50 for HIV1 IIIB infected human MT4 cells.
Series [2] can be described thus: Stability in rat liver microsome assessed as binding constant at 1 uM in presence of NADPH by LC/MS/MS analysis. As to conditions: microsomes. In general terms: Microsomes from liver hold many membrane-bound enzymes, among them those of drug oxidation.
Series [3] in a line: Stability in human liver microsome assessed as binding constant at 1 uM in presence of NADPH by LC/MS/MS analysis. As to conditions: microsomes.
A short description of series [4]: Cytotoxicity against mock infected human MT4 cells by MTT assay.
Series [5] has as its system Human immunodeficiency virus 1. The series is described as follows: Antiviral activity against HIV1 IIIB infected human MT4 cells assessed as protection against virus-induced cytopathic effect by MTT assay. Particulars: Human immunodeficiency virus 1, IIIB. The series is classed as functional, organism-based. On the technique in general: Damage to the host cells serves as the signal in cytopathic effect assays.

A short description of series [6]: Solubility of compound in PBS at pH 4.5 by HPLC-UV analysis. The series is classed as physicochemical.
Series [7] can be described thus: Aqueous solubility of compound in PBS at pH 7 by HPLC-UV analysis.
The nature of series [8]: in vitro. As to conditions: rat.
The nature of series [9]: in vitro. As to conditions: rat. The source holds these as a separate data set.
Series [10] in a line: Oral bioavailability in Sprague-Dawley rat at 5 mg/kg by LCMS analysis. The series is classed as ADME, organism-based. Particulars: in vivo.
Series [11] has as its system Human immunodeficiency virus 1. The experiment in a line: Anti-viral activity against HIV1 harboring RT Y181C mutant infected […] cells assessed as protection against virus-induced cytopathic effect by MTT assay. As to conditions: Human immunodeficiency virus 1, MT4. The series is classed as functional, organism-based.
For series [12], the system named is Human immunodeficiency virus 1. The experiment in a line: Anti-viral activity against HIV1 harboring RT Y188L mutant infected […] cells assessed as protection against virus-induced cytopathic effect by MTT assay. In kind it is functional, organism-based. Particulars: Human immunodeficiency virus 1, MT4.
Series [13] deals with Human immunodeficiency virus 1. The experiment in a line: Anti-viral activity against HIV1 harboring RT L100I mutant infected […] cells assessed as protection against virus-induced cytopathic effect by MTT assay. In kind it is functional, organism-based. As to conditions: Human immunodeficiency virus 1, MT4.
In series [14] the test system is Human immunodeficiency virus 1. The experiment in a line: Anti-viral activity against HIV1 harboring RT K103N mutant infected […] cells assessed as protection against virus-induced cytopathic effect by MTT assay. As to conditions: Human immunodeficiency virus 1, MT4. The series is classed as functional, organism-based.
The test system of series [15] is Human immunodeficiency virus 1. The experiment in a line: Anti-viral activity against HIV1 harboring RT E138K mutant infected […] cells assessed as protection against virus-induced cytopathic effect by MTT assay. The series is classed as functional, organism-based. As to conditions: Human immunodeficiency virus 1, MT4.
Series [16] concerns the target Human immunodeficiency virus type 1 reverse transcriptase (Human immunodeficiency virus 1, UniProt Q72547). The experiment in a line: Inhibition of recombinant wild-type HIV1 p66/p51 reverse transcriptase assessed as inhibition of [3H][…] incorporation using poly (rA) as templates incubated for 40 mins by spectrofluorometer.
Series [17] is described as follows: AUC (infinity) in Sprague-Dawley rat at 5 mg/kg, po by LCMS analysis. As to conditions: in vivo. Set-up: route oral, time infinity, dose 5 mg/kg. In kind it is ADME, organism-based.
Series [18] in a line: AUC (all) in Sprague-Dawley rat at 5 mg/kg, po by LCMS analysis. In kind it is ADME, organism-based. More on the design: dose 5 mg/kg. Particulars: in vivo.
Series [19] in a line: Acute toxicity in fasted mouse assessed as pathological changes in heart at 2 g/Kg, IG upto 2 weeks after 14 days by H and E staining based analysis. The series is classed as tissue-based. Particulars: in vivo, po, 2000 mg/kg, 336 h.
Series [20] in a line: Acute toxicity in fasted mouse assessed as behavioral changes at 2 g/Kg, IG upto 2 weeks. As to conditions: in vivo, po, 2000 mg/kg, 336 h.
Series [21] can be described thus: Acute toxicity in fasted mouse assessed as pathological changes in spleen at 2 g/Kg, IG upto 2 weeks after 14 days by H and E staining based analysis. In kind it is tissue-based. As to conditions: in vivo, po, 2000 mg/kg, 336 h.
The nature of series [22]: Half life in Sprague-Dawley rat at 1 mg/kg, iv by LCMS analysis. In kind it is ADME, organism-based. Particulars: in vivo.
A short description of series [23]: Stability in mouse liver microsome assessed as binding constant at 1 uM in presence of NADPH by LC/MS/MS analysis. As to conditions: microsomes. In kind it is ADME.
Series [24] is described as follows: Acute toxicity in fasted mouse assessed as pathological changes in liver at 2 g/Kg, IG upto 2 weeks after 14 days by H and E staining based analysis. As to conditions: in vivo, po, 2000 mg/kg, 336 h. The series is classed as tissue-based.
A short description of series [25]: AUC (all) in Sprague-Dawley rat at 1 mg/kg, iv by LCMS analysis. Set-up: dose 1 mg/kg. In kind it is ADME, organism-based. As to conditions: in vivo.
Series [26] is described as follows: in vitro. Particulars: human, liver microsomes.
Series [27] in a line: AUC (infinity) in Sprague-Dawley rat at 1 mg/kg, iv by LCMS analysis. The series is classed as ADME, organism-based. Set-up: route intravenous, time infinity, dose 1 mg/kg. As to conditions: in vivo.
Series [28] in a line: MRT (infinity) in Sprague-Dawley rat at 5 mg/kg, po by LCMS analysis. In kind it is ADME, organism-based. Particulars: in vivo.
Series [29] can be described thus: Acute toxicity in fasted mouse assessed as pathological changes in brain at 2 g/Kg, IG upto 2 weeks after 14 days by H and E staining based analysis. The series is classed as tissue-based. Particulars: in vivo, po, 2000 mg/kg, 336 h.
A short description of series [30]: in vitro. As to conditions: human, liver microsomes. The source holds these as a separate data set.
Series [31] is described as follows: Acute toxicity in fasted mouse assessed as pathological changes in kidney at 2 g/Kg, IG upto 2 weeks after 14 days by H and E staining based analysis. The series is classed as tissue-based. As to conditions: in vivo, po, 2000 mg/kg, 336 h.
Series [32] can be described thus: Acute toxicity in fasted mouse assessed as mouse death at 2 g/Kg, IG. Particulars: in vivo, po, 2000 mg/kg.
Series [33] in a line: Stability in mouse liver microsome assessed as half life at 1 uM in presence of NADPH by LC/MS/MS analysis. The series is classed as ADME. Particulars: liver microsomes.
Series [34] is described as follows: Tmax in Sprague-Dawley rat at 5 mg/kg, po by LCMS analysis. The series is classed as ADME, organism-based. Particulars: in vivo.
Series [35] is described as follows: Acute toxicity in fasted mouse assessed as weight loss at 2 g/Kg, IG upto 2 weeks. Particulars: in vivo, po, 2000 mg/kg, 336 h.
The nature of series [36]: Intrinsic clearance in mouse liver microsome at 1 uM in presence of NADPH by LC/MS/MS analysis. The series is classed as ADME. Particulars: liver microsomes, read-out: CLH.
The nature of series [37]: Cmax in Sprague-Dawley rat at 1 mg/kg, iv by LCMS analysis. More on the design: route intravenous, dose 1 mg/kg. Particulars: in vivo. The series is classed as ADME, organism-based.
Series [38] in a line: Acute toxicity in fasted mouse assessed as pathological changes in lung at 2 g/Kg, IG upto 2 weeks after 14 days by H and E staining based analysis. The series is classed as tissue-based. As to conditions: in vivo, po, 2000 mg/kg, 336 h.
Series [39] can be described thus: MRT (infinity) in Sprague-Dawley rat at 1 mg/kg, iv by LCMS analysis. The series is classed as ADME, organism-based. Particulars: in vivo.
Series [40] is described as follows: Clearance in Sprague-Dawley rat at 1 mg/kg, iv. In kind it is ADME, organism-based. Particulars: in vivo.
Series [41] is described as follows: Half life in Sprague-Dawley rat at 5 mg/kg, po by LCMS analysis. The series is classed as ADME, organism-based. Particulars: in vivo.
A short description of series [42]: Aqueous solubility of compound in PBS at pH 7.4 by HPLC-UV analysis.

A value given as a limit tells only on which side of the number the result lay.

For `Cc1cc(-c2ccc(C#N)cc2)cc(C)c1Nc1ccnc(Nc2ccc(C#N)cc2)n1`, the selectivity ratio in series [1] was determined as 2080. Besides, the K turned out to be 0.045 min⁻¹ in [2] and 0.047 min⁻¹ in series [3]. The same compound displayed a CC50 in [4] of 2100 nM. Moreover, the EC50 in series [5] was 1 nM.
With `O=c1c2nc([N+](=O)[O-])cn2ccn1Cc1ccccc1`, the solubility result in series [6] (buffer) was “Insoluble”.
Take `Cl.N#Cc1ccc(Nc2nccc(Nc3c(F)cc(-c4ccc(C#N)cc4)cc3F)n2)cc1`: in series [7] (PBS), the solubility turned out to be 5.6 µg/mL.
In the series “in vitro [8]” (microsomes), `N#Cc1ccc(Nc2nccc(Nc3c(F)cc(-c4ccc(C#N)cc4)cc3F)n2)cc1` registered a half-life at 1 µM of 44.3 min. In the series “in vitro [9]” (microsomes), this compound had a microsomal CLint at 1 µM of 15.7 µL/min/mg. The K in series [2] stood at 0.0157 min⁻¹; in series [3] it was 0.0219 min⁻¹. This compound also registered a CC50 in series [4] of over 294000 nM. For the same compound, the bioavailability in series [10] turned out to be 44%. Moreover, in series [5], the EC50 amounted to 1 nM.
On to `N#Cc1ccc(Nc2nccc(Nc3c(F)cc(-c4ccnc(C#N)c4F)cc3F)n2)cc1`, for which the EC50 in series [11] was found to be 42 nM; in [12], 18300 nM; in series [13], 80 nM; in series [14] it was 14 nM; in [15], 11 nM; in [5] it was 2 nM. Also, the selectivity ratio in series [1] was over 143000. Moreover, the CC50 in [4] is over 282000 nM. Moreover, the IC50 in series [16] came out at 11 nM.
With `Cl.N#Cc1ccc(Nc2nccc(Nc3c(F)cc(-c4ccncc4)cc3F)n2)cc1`, the AUC(0-inf) in [17] amounted to 3350 ng·h/mL; in series [27] it was 531 ng·h/mL. The AUC in series [18] was found to be 3340 ng·h/mL; in series [25], 526 ng·h/mL. Moreover, the Activity entry in series [19], in series [20], in [21], in series [24], in series [29] and in series [31] was “Non-Toxic” throughout. The Activity result in [32], in series [35] and in series [38] was “Non-Toxic” in each case. Besides, the results for the half-life in series [22] and in series [41] were 45.6 min and 50.4 min, respectively. The values for the half-life at 1 µM (in “in vitro [8]” (liver microsomes); in the series “in vitro [26]”; in series [33]) were 32 min, 49 min and 27 min, respectively. For the same compound, the figures for the K in series [23], in series [2] and in series [3] were 0.0259 min⁻¹, 0.0215 min⁻¹ and 0.0142 min⁻¹, respectively. Further, the microsomal CLint at 1 µM in the series “in vitro [9]” (liver microsomes) was 43 µL/min/mg; in the series “in vitro [30]” it was 28 µL/min/mg; in series [36], 52 µL/min/mg. Also, the MRT inf in series [28] was determined as 101 min; in [39], 50.4 min. Besides, the bioavailability in [10] turned out to be 126%. The Tmax in [34] worked out at 34.8 min. The concentration in series [37] peaked (Cmax) at 1370 ng/mL. In series [40], this compound came in with a clearance of 32 mL/min/kg.
As to `O=c1c2nc([N+](=O)[O-])cn2ccn1Cc1cccnc1`, the solubility in series [6] (PBS, read-out: solubility) was over 200 µM.
Take `Cc1cc(C#N)cc(C)c1Oc1nc(Nc2ccc(C#N)cc2)nc(N)c1Br` [ETRAVIRINE]: the EC50 stood at 29.3 nM in [12] and 3.4 nM in series [14]. Further, the solubility in series [42] (PBS) and in series [7] (PBS) was under 1 µg/mL throughout. Also, in series [4], the CC50 was over 4600 nM.
With `Cc1cc(/C=C/C#N)cc(C)c1Nc1ccnc(Nc2ccc(C#N)cc2)n1.Cl` [RILPIVIRINE HYDROCHLORIDE], the bioavailability in series [10] stood at 32%.
Take `Cc1cc(/C=C/C#N)cc(C)c1Nc1ccnc(Nc2ccc(C#N)cc2)n1` [RILPIVIRINE]: the solubility in series [42] (buffer) and in series [7] (buffer) was under 1 µg/mL in each case.

The CC50 is the concentration giving 50% cytotoxicity. Read a low CC50 as greater toxicity to the cells. As a reminder, the EC50 is the concentration that produces a half-maximal response. For orientation: solubility means the dissolved amount per volume that the medium holds. As usually defined, the half-life is the time needed for the level to fall by half in the phase considered. The term IC50 denotes the concentration at which inhibition is half-maximal. By AUC(0-inf) is commonly meant the area under the concentration-time curve extrapolated to infinity. High values mean high exposure, low ones low exposure. As a reminder, the AUC is the area under the concentration-time curve, a measure of exposure. The MRT inf is a mean duration of stay, worked out from the concentration-time curve. One may read the Tmax as the time at which the peak concentration occurs. What is called Cmax is the maximum level reached in the sampled fluid or tissue. The clearance is the rate of elimination divided by the concentration.

The record behind these values is ChEMBL document CHEMBL5032511, “Improving Druggability of Novel Diarylpyrimidine NNRTIs by a Fragment-Based Replacement Strategy: From Biphenyl-DAPYs to Heteroaromatic-Biphenyl-DAPYs” (J Med Chem, 2021).
